How the values were obtained:
CDK6/D3 = CDK6/D3 (Homo sapiens, UniProt Q00534); test: ADP Glo Kinase assay CDK6/D3; assay type: biochemical; settings: CDK6D3; compound at 10 μM; read-out: residual activity (%) at 10 μM CDK6D3
Protocol: (§1) Eurofins Pharma Discovery or Reaction Biology Corporation Kinase Profiler services were used to measure inhibition of CDKs and other kinases by radiometric assay. Inhibition of CDK4/D1, CDK6/D3 and CDK9/T1 were also determined in-house using ADP Glo Kinase assays (Promega Corporation, Madison, USA). Briefly, the kinase reaction for CDK4/D1 and CDK6/D3 was performed with kinase reaction buffer ([…] Tris base pH 7.5, 20 mM MgCl2, 0.4 mM DTT), 0.1 mg/ml BSA and RB-CTF substrate (retinoblastoma protein 1 C-terminal fraction). For CDK9/CyclinT1, the kinase reaction was performed with standard assay buffer and Kinase Dilution Buffer and RBER-IRStide substrate. Serial dilutions of 1:3 were prepared for test compounds for 10 concentrations (from 10 μM to 0.5 nM). The kinase reactions were started by addition of ATP, incubated for 40 min at 37° C. and then stopped by adding 10 μL of ADP Glo reagent. After incubation at room temperature in the dark for 40 min, 20 μL of kinase detection reagent was added per well and incubated for 40 min. Luminescence was measured using an EnVision Multilabel plate reader (PerkinElmer, Buckinghamshire, UK). Positive and negative controls were performed in the presence and absence of CDK kinases, respectively. Half-maximal inhibition (IC50) values were calculated using a 4-parameter logistic non-linear regression model with Graphpad prism (Version 6.0). Apparent inhibition constants (Ki) values were calculated from Km (ATP) and IC50 values for the respective kinases.

CDKs and other kinases [1] = molecular target: T1, CDKs and other kinases (Homo sapiens, UniProt P50613); test: Radiometric kinase assay (Eurofins Pharma Discovery or Reaction Biology Corporation Kinase Profiler); assay type: biochemical; settings: CDK7H; for remaining activity at 10 µM: compound at 10 μM, read-out: residual activity (%) at 10 μM CDK7H; for Ki: read-out: CDK inhibition, Ki (μM) CDK7H
T1 construct: other: CDK7H; residual activity (%) at 10 μM CDK7H; compound at 10 μM
T1 sequence (P50613 whole entry): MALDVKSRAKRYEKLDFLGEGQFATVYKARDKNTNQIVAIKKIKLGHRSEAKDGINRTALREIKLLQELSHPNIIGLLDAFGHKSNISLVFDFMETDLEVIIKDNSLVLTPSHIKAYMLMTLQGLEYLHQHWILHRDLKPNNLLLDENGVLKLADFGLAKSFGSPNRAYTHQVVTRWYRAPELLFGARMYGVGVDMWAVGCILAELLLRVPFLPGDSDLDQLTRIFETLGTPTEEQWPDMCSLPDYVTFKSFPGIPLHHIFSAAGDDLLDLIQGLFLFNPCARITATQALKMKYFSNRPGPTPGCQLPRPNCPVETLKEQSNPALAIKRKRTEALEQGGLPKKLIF
Protocol: as §1

CDKs and other kinases [2] = molecular target: T2, CDKs and other kinases (Homo sapiens, UniProt P24941); test: as above; assay type: biochemical; settings: CDK2A; for remaining activity at 10 µM: compound at 10 μM, read-out: residual activity (%) at 10 μM CDK2A; for Ki: read-out: CDK inhibition, Ki (μM) CDK2A
T2 construct: other: CDK2A; residual activity (%) at 10 μM CDK2A; compound at 10 μM
Protocol: as §1

CDKs and other kinases [3] = molecular target: T3, CDKs and other kinases (Homo sapiens, UniProt P06493); test: as above; assay type: biochemical; settings: CDK1B; for remaining activity at 10 µM: compound at 10 μM, read-out: residual activity (%) at 10 μM CDK1B; for Ki: read-out: CDK inhibition, Ki (μM) CDK1B
T3 construct: other: CDK1B; residual activity (%) at 10 μM CDK1B; compound at 10 μM
T3 sequence (P06493 whole entry): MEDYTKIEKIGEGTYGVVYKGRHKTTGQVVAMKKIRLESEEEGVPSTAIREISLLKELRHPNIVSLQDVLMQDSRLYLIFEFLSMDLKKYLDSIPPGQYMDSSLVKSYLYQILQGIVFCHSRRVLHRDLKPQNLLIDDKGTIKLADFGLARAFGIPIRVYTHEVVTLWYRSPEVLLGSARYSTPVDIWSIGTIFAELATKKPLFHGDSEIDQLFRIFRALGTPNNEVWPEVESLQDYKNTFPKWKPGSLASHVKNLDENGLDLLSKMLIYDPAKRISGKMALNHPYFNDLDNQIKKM
Protocol: as §1

CDK9/T1 = CDK9/T1 (Homo sapiens, UniProt P50750); test: ADP Glo Kinase assay CDK9/T1; assay type: biochemical; settings: CDK9T1; read-out: CDK inhibition, Ki (μM) CDK9T1
Sequence of CDK9/T1 (P50750 whole entry): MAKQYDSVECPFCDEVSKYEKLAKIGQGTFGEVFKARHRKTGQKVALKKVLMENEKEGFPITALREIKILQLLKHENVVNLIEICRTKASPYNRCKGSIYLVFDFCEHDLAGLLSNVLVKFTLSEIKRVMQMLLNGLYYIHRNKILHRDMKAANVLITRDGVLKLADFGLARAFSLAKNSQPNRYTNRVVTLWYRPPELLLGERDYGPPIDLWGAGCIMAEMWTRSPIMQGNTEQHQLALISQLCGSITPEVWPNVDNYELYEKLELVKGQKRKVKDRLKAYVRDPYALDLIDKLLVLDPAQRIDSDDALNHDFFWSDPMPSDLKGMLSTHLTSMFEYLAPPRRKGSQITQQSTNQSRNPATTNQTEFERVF
Sequence of CDK9/T1 (O60563 whole entry partner): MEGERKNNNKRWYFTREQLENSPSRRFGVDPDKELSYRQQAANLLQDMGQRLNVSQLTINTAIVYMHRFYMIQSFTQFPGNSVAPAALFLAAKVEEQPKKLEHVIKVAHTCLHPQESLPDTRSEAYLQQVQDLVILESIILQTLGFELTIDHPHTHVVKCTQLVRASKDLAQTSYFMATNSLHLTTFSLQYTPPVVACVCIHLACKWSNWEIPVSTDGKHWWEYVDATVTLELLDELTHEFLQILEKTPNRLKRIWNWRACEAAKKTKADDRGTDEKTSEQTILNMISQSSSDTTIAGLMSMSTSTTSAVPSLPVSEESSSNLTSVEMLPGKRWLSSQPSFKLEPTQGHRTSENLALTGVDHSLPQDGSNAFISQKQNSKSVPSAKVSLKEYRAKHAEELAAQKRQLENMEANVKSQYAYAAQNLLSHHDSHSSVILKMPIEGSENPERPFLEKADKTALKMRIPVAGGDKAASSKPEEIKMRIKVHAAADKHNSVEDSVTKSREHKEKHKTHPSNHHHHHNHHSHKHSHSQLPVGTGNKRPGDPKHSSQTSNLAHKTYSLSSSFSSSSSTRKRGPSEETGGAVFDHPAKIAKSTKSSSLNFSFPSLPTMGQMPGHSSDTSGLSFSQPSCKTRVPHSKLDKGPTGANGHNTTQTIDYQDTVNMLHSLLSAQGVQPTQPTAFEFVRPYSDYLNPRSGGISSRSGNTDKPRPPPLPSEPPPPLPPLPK
Protocol: as §1

CDK4/D1 = CDK4/D1 (Homo sapiens, UniProt P11802); test: ADP Glo Kinase assay CDK4/D1; assay type: biochemical; settings: CDK4D1; for remaining activity at 10 µM: compound at 10 μM, read-out: residual activity (%) at 10 μM CDK4D1; for Ki: read-out: CDK inhibition, Ki (μM) CDK4D1
Sequence of CDK4/D1 (P11802 whole entry): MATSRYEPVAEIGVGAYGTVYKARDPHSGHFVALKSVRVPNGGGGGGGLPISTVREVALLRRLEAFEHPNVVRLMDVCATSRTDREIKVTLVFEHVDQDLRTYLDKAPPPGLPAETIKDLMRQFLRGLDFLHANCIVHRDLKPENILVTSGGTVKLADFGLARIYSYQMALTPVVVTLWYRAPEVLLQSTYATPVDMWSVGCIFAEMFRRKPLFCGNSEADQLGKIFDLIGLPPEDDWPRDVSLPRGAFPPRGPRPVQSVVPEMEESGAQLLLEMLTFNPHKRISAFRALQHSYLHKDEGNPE
Sequence of CDK4/D1 (P24385 whole entry partner): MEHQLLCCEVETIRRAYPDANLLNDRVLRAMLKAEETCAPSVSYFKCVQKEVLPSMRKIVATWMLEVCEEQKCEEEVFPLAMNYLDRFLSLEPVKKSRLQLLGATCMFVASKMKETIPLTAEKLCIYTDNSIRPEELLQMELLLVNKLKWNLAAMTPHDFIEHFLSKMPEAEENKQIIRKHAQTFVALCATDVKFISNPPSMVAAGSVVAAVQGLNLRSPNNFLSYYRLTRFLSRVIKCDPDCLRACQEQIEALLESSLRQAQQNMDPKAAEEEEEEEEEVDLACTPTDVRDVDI
Protocol: as §1

leukemia cell lines = test: Resazurin cell viability assay on leukemia cell lines (72 h growth inhibition, GI50); assay type: cell-based; settings: Homo sapiens, MV4-11 cells
Protocol: Compounds from Example 1 were subjected to a standard MTT (3-(4,5-dimethylthiazol-2-yl)-2,5-diphenyltetrazolium bromide) and resazurin assays on solid tumour cell lines and leukemia cell lines, respectively, as previously reported (Wang S et al., J Med Chem 47:1662-1675, 2004 and Diab S. et al. CheMedChem 9:962-972, 2014). Compound concentrations required to inhibit 50% of cell growth (GI50) were calculated using non-linear regression analysis.

Sequence of CDK6/D3 (Q00534 whole entry): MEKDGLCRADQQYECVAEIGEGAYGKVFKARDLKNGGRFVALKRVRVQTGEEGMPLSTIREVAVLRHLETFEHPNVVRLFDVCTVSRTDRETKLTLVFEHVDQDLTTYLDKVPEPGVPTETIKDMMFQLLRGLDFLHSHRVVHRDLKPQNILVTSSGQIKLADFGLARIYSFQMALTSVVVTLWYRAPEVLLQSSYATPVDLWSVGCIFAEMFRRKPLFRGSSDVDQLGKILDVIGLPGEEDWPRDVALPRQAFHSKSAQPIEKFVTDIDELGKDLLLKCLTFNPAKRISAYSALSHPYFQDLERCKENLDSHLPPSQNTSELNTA
Sequence of CDK6/D3 (P30281 whole entry partner): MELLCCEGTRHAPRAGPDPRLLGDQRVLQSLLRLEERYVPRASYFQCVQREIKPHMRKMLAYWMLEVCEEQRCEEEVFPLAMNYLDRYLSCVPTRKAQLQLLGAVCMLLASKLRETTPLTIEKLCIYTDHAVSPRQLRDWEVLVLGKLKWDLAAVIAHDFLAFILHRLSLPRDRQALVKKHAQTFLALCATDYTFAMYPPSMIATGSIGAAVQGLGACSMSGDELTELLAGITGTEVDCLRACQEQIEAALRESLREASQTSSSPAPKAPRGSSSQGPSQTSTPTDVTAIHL

| SMILES | remaining activity at 10 µM (CDK6/D3) [%] | remaining activity at 10 µM (CDKs and other kinases [1]) [%] | remaining activity at 10 µM (CDKs and other kinases [2]) [%] | remaining activity at 10 µM (CDKs and other kinases [3]) [%] | Ki (CDK9/T1) [µM] | remaining activity at 10 µM (CDK4/D1) [%] | Ki (CDKs and other kinases [3]) [µM] | GI50 (leukemia cell lines) [µM] | Ki (CDKs and other kinases [1]) [µM] | Ki (CDKs and other kinases [2]) [µM] | Ki (CDK4/D1) [µM] |
| --- | --- | --- | --- | --- | --- | --- | --- | --- | --- | --- | --- |
| Cc1cnc(N[C@H]2CC[C@H](NCC(N)=O)CC2)nc1-c1cnc2ccc(Nc3cncnc3)cn12 [Compound 153, 2-(((1r,4r)-4-((5-Methyl-4-(6-(pyrimidin-5-ylamino)imidazo[1,2-a]pyridin-3-yl)pyrimidin-2-yl)amino)cyclohexyl)amino)acetamide] |  | 49 | 14 |  | 0.01 | 0 | 0.632 | 9.32 ± 0.73 |  |  |  |
| Cc1cnc(N[C@H]2CC[C@H](N3CCC3)CC2)nc1-c1cnc2ccc(-c3ccccc3)cn12 [Compound 135, N-((1r,4r)-4-(Azetidin-1-yl)cyclohexyl)-5-methyl-4-(6-phenylimidazo[1,2-a]pyridin-3-yl)pyrimidin-2-amine] |  | 13 | 57 | 61 | 1.14 | 28 |  | 0.564 ± 0.047 |  |  |  |
| Cc1cnc(NC2CCC(N(C)C)CC2)nc1-c1cnc2ccc(Nc3cncc(F)c3)cn12 (stereo not drawn) [Compound 120, N^1-(4-(6-((5-Fluoropyridin-3-yl)amino)imidazo[1,2-a]pyridin-3-yl)-5-methylpyrimidin-2-yl)-N^4,N^4-dimethylcyclohexane-1,4-diamine] |  | 29 | 4 | 31 | 0.015 |  |  | 0.023 ± 0.01 |  |  | 0.87 |
| Cc1cnc(NC2CCC(F)(F)CC2)nc1-c1cnc2ccc(-c3ccccc3)cn12 [Compound 155, N-(4,4-Difluorocyclohexyl)-5-methyl-4-(6-phenylimidazo [1,2-a]pyridin-3-yl)pyrimidin-2-amine] |  | 99 | 100 | 100 | > 5 | 96 |  | 7 ± 2.03 |  |  |  |
| CCN[C@H]1CC[C@@H](Nc2ncc(C)c(-c3cnc4ccc(-c5ccccc5)cn34)n2)CC1 [Compound 132, (1s,4s)-N^1-ethyl-N^4-(5-Methyl-4-(6-phenylimidazo[1,2-a]pyridin-3-yl)pyrimidin-2-yl)cyclohexane-1,4-diamine] |  | 40 | 23 | 25 | 1.12 | 16 |  | 0.012 ± 0.008 |  |  |  |
| CN1CCC(Nc2ncc(F)c(-c3cnc4ccccn34)n2)CC1 [Compound 19, 5-Fluoro-4-(imidazo[1,2-a]pyridin-3-yl)-N-(1-methylpiperidin-4-yl)pyrimidin-2-amine] |  |  |  |  | 0.078 |  | 0.795 | 0.084 ± 0.008 | 0.27 | 0.527 | 0.004 |
| Cc1cnc(N[C@H]2CC[C@H](C)CC2)nc1-c1cnc2ccc(-c3ccccc3)cn12 [Compound 151, 5-Methyl-N-((1r,4r)-4-methylcyclohexyl)-4-(6-phenylimidazo[1,2-a]pyridin-3-yl)pyrimidin-2-amine] |  | 94 | 87 | 96 | > 5 | 93 |  | 8.643 ± 0.01 |  |  |  |
| Cc1cnc(N[C@H]2CC[C@H](C)CC2)nc1-c1cnc2ccc(Nc3cncnc3)cn12 [Compound 152, 3-(5-Methyl-2-(((1r,4r)-4-methylcyclohexyl)amino)pyrimidin-4-yl)-N-(pyrimidin-5-yl)imidazo[1,2-a]pyridin-6-amine] |  | 55 | 5 | 34 | 0.181 | 20 |  | 2.86 ± 0.29 |  |  |  |

Further compounds by falling Ki (CDK9/T1), results first:

| remaining activity at 10 µM (CDK6/D3) [%] | remaining activity at 10 µM (CDKs and other kinases [1]) [%] | remaining activity at 10 µM (CDKs and other kinases [2]) [%] | remaining activity at 10 µM (CDKs and other kinases [3]) [%] | Ki (CDK9/T1) [µM] | remaining activity at 10 µM (CDK4/D1) [%] | Ki (CDKs and other kinases [3]) [µM] | GI50 (leukemia cell lines) [µM] | Ki (CDKs and other kinases [1]) [µM] | Ki (CDKs and other kinases [2]) [µM] | Ki (CDK4/D1) [µM] | SMILES |
| --- | --- | --- | --- | --- | --- | --- | --- | --- | --- | --- | --- |
|  | 36 | 59 | 22 | 2.77 | 48 |  | 0.297 ± 0.001 |  |  |  | Cc1cnc(N[C@H]2CC[C@@H](N3CCC3)CC2)nc1-c1cnc2ccc(-c3ccccc3)cn12 [Compound 136, N-((1s,4s)-4-(Azetidin-1-yl)cyclohexyl)-5-methyl-4-(6-phenylimidazo[1,2-a]pyridin-3-yl)pyrimidin-2-amine] |
|  |  | 34 | 16 | 1.82 | 34 |  | 0.026 ± 0.003 | 0.37 |  |  | Fc1cnc(NC2CCN(CC3CCCC3)CC2)nc1-c1cnc2ccc(-c3ccccc3)cn12 [Compound 146, N-(1-(Cyclopentylmethyl)piperidin-4-yl)-5-fluoro-4-(6-phenylimidazo[1,2-a]pyridin-3-yl)pyrimidin-2-amine] |
|  |  | 54 | 56 | 0.829 | 29 |  | 0.092 ± 0.01 | 1.75 |  |  | CC(C)(C)OC(=O)N1CCC(Nc2ncc(F)c(-c3cnc4ccccn34)n2)CC1 [Compound 20, tert-Butyl 4-((5-fluoro-4-(imidazo[1,2-a]pyridin-3-yl)pyrimidin-2-yl)amino)piperidine-1-carboxylate] |
|  |  | 61 | 39 | 0.53 | 65 |  | 0.242 ± 0.132 | 0.597 |  |  | Cc1cnc(N[C@H]2CC[C@H](N3CCCC3)CC2)nc1-c1cnc2ccc(-c3ccccc3)cn12 [Compound 140, 5-Methyl-4-(6-phenylimidazo[1,2-a]pyridin-3-yl)-N-((1r,4r)-4-(pyrrolidin-1-yl)cyclohexyl)pyrimidin-2-amine] |
|  | 98 | 85 | 94 | 0.185 | 92 |  | > 10 |  |  |  | Cc1cnc(N[C@H]2CC[C@H](C(=O)O)CC2)nc1-c1cnc2ccc(Nc3cncnc3)cn12 [Compound 158, (1r,4r)-4-((5-Methyl-4-(6-(pyrimidin-5-ylamino)imidazo [1,2-a]pyridin-3-yl)pyrimidin-2-yl)amino)cyclohexane-1-carboxylic acid] |
|  |  | 20 | 9 | 0.178 | 3 |  | 0.145 ± 0.001 | 0.313 |  |  | CN1CCC(Nc2ncc(F)c(-c3cnc4ccc(Nc5cncnc5)cn34)n2)CC1 [Compound 149, 3-(5-Fluoro-2-((1-methylpiperidin-4-yl)amino)pyrimidin-4-yl)-N-(pyrimidin-5-yl)imidazo[1,2-a]pyridin-6-amine] |
|  |  |  |  | 0.069 | -11 | 0.479 | 0.003 ± 0.001 | 0.6 | 0.321 |  | Fc1cnc(NC2CCNCC2)nc1-c1cnc2ccccn12 [Compound 21, 5-Fluoro-4-(imidazo[1,2-a]pyridin-3-yl)-N-(piperidin-4-yl)pyrimidin-2-amine] |
|  | 0 |  |  | 0.006 | 6 | 0.076 | < 0.001 |  | 0.111 |  | Fc1cnc(N[C@H]2CC[C@H](N3CCC3)CC2)nc1-c1cnc2ccc(-c3ccccc3)cn12 [Compound 138, N-((1r,4r)-4-(Azetidin-1-yl)cyclohexyl)-5-fluoro-4-(6-phenylimidazo[1,2-a]pyridin-3-yl)pyrimidin-2-amine] |
| 4 | 4 | 0 | 1 | 0.003 | 14 |  |  |  |  |  | N[C@H]1CC[C@H](Nc2ncc(F)c(-c3cnc4ccc(Nc5cncnc5)cn34)n2)CC1 [Compound 50, (1r,4r)-N^1-(5-Fluoro-4-(6-(pyrimidin-5-ylamino)imidazo [1,2-a]pyridin-3-yl)pyrimidin-2-yl)cyclohexane-1,4-diamine] |
